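Growth conditions: 96-well plates. Treatment: test compound, 48 hours, 5 concentrations. Analysis: linear interpolation between bracketing concentrations; unreached endpoints set to highest concentration. GI50 is the concentration that inhibits growth by half. TGI is the concentration that stops growth completely.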

The record followed here is PubChem BioAssay (NCI).

Holding throughout (assay): growth of human tumour cells (NCI), 48 h
Assay [1] relates to U251 CNS.
The subject of assay [2] is SF-295 CNS.
Assay [3] concerns 786-0 renal.
The test system of assay [4] is SNB-19 CNS.
For assay [5], the system named is OVCAR-5 ovarian.
Assay [6] has as its system SF-268 CNS.
Assay [7] has as its system UACC-62 melanoma.
The test system of assay [8] is MDA-MB-435.
Assay [9] concerns PC-3 prostate.

Take `CN(C)CCn1c2c3ccccc3ccc2c2oc(=O)c3ccccc3c21`: the TGI in assay [1] was 20 µM; in [2] it was 20.8 µM; in assay [3] it was 7.14 µM; in assay [4], 29.4 µM; in assay [5], 90.4 µM; in assay [6], 7.86 µM. The same molecule had a TGI in assay [7] of 71 µM.

In the case of `Cc1cc2c(C)[nH]nc2c(C(=O)O)c1C`, the TGI in assay [1], in assay [2], in assay [3], in assay [4] and in assay [7] was more than 100 µM throughout.

In the case of `N[C@@H]1CCCC[C@@H]1N.O=P([O-])([O-])CN(CCN(CP(=O)([O-])[O-])CP(=O)([O-])[O-])CP(=O)([O-])[O-].[Pt+2]`, the GI50 in assay [1], in [2], in assay [3], in assay [4], in [5] and in assay [6] was more than 25 µM throughout. For the same molecule, the GI50 in assay [7] was more than 25 µM. The TGI in [1], in [2], in assay [3], in [4], in assay [5] and in assay [6] was more than 25 µM throughout. The molecule further returned a TGI in [7] of more than 25 µM.

With `Cc1ccc(Oc2ccc(C)cc2N)cc1`, the TGI in [1], in assay [2], in assay [3], in assay [4], in [5] and in assay [6] was more than 100 µM throughout. Moreover, the TGI in [7] is more than 100 µM.

Turning to `CC(C)(C)c1cc2ccc(C(N)=O)cc2c(=O)[nH]1`, the TGI in [1], in assay [2], in assay [3], in [4], in [5] and in assay [6] was more than 100 µM each time. The TGI in [7] is more than 100 µM.

Consider `COC(=O)CC(c1ccccc1)C1(c2ccccc2)SCCS1` (stereo not given), for which the TGI in assay [1], in assay [2], in [3], in assay [4], in assay [5] and in assay [6] was more than 290 µM each time. The same molecule came in with a TGI in [7] of more than 290 µM.

For the molecule `O=C1C=CC(=O)c2nc3c(cc21)CCC3`, the TGI in assay [1] is more than 100 µM; in assay [2], more than 100 µM; in assay [3], 33.4 µM; in [4] it was more than 100 µM; in assay [5] it was more than 100 µM; in [6], 37.3 µM. The molecule further gave a TGI in assay [7] of 33 µM.

Consider `COc1ccc(C)cc1-c1cc(Sc2ccccc2)c(-c2cc(C)ccc2OC)o1`, for which the TGI in [1] is more than 31.6 µM; in assay [2], more than 100 µM; in assay [3], more than 31.6 µM; in assay [4], more than 31.6 µM; in assay [5], more than 100 µM; in [6] it was more than 31.6 µM. Also, in assay [7], the TGI was more than 31.6 µM.

With `O=S(=O)(N/N=C/c1cccc(/C=N/NS(=O)(=O)c2ccccc2)c1)c1ccccc1`, the TGI in assay [1], in assay [2], in assay [3], in [5], in assay [6] and in assay [7] was more than 100 µM in each case.

On to `CC(=O)NNc1nc(C)c(C(=O)/C=C/c2ccc(NC(C)=O)cc2)s1`, for which the TGI in assay [1], in assay [2], in assay [3], in [4], in [5] and in assay [6] was more than 100 µM throughout. The same molecule displayed a TGI in [7] of more than 100 µM.

As for `C/C(CCn1[nH]c(=O)ccc1=O)=N\NC(=O)C(=O)NN`, the TGI in [2], in assay [3], in assay [4], in assay [5], in [6] and in [7] was more than 100 µM in each case.

As to `CCCCCC[C@@H]1CCC2C(CO)[C@@H](O)CC[C@@H]2C1` (stereo not given in full), the TGI in assay [1] is 33.9 µM; in [2], 30.3 µM; in [3], 33.5 µM; in assay [4], 35.8 µM; in [5], 33.9 µM; in assay [6], 32.6 µM. In assay [7], this molecule returned a TGI of 38.6 µM.

Take `COc1cc(-c2ccc3cc(OC)c(OC)c(OC)c3c2)cc(OC)c1OC`: the GI50 in assay [1] is 15.7 µM; in assay [3], 20.9 µM; in assay [8], 2.8 µM; in assay [4] it was 75.1 µM; in assay [9], 5.81 µM; in [5] it was more than 100 µM. The GI50 in assay [6] was 24 µM; in [7], 29.6 µM. Moreover, the TGI in [1], in [3], in assay [8], in assay [4], in assay [9] and in assay [5] was more than 100 µM each time. For the same molecule, the TGI in assay [6] and in assay [7] was more than 100 µM in each case.

In the case of `c1ccc(NCn2cnc3ccccc32)cc1`, the TGI in [1], in [2], in assay [3], in assay [4], in [5] and in assay [6] was more than 100 µM throughout. In assay [7], this molecule yielded a TGI of more than 100 µM.

Take `CC(C)(C)c1cc2c(O)c3cccc4c(=O)c5cccc6c5-c(c34)c2c(c1)c6=O`: the TGI in [1], in assay [2], in assay [3], in assay [4], in [5] and in assay [6] was more than 100 µM throughout. The molecule further gave a TGI in assay [7] of more than 100 µM.

For `NC(=O)c1ccccc1NC(=O)C(=O)C(C(=O)c1ccc(Cl)c(Cl)c1)C1OC(=O)c2ccccc21` (stereo not given), the TGI in assay [1], in assay [3], in assay [4], in [5], in assay [6] and in assay [7] was more than 100 µM throughout.

Turning to `Cc1cccc(C)c1NC(=O)CCCC(=O)C1/C(=N/NC(=O)CC#N)CCC/C1=N\NC(=O)CC#N` (stereo not given), the TGI in [1], in assay [2], in assay [3], in assay [4], in [5] and in assay [6] was more than 100 µM in each case. The same molecule showed a TGI in assay [7] of more than 100 µM.
